Where two headings read alike, the source gives them in different places.
Assays:
[1] = Evaluation of various buffering systems on human skin; conditions: sensitive, healthy or eczema affected skin
[2] = cited from earlier work
[3] = in vivo

Structure (SMILES) | skin irritation / tolerability [3] | also measured
O=C(O)CO [glycolic acid] |  | skin irritation / tolerability [1]: may be irritating for sensitive skin
N[C@@H](CC(=O)O)C(=O)O [aspartic acid] |  | pKa [2]: around 3.65
CC(O)C(=O)O (centres unmarked) [lactic acid] | may be irritating for sensitive skin | 
O=C(O)CC(O)(CC(=O)O)C(=O)O [Citric acid] | well tolerated on healthy and eczema affected skin | 
O=C(O)[C@H](O)[C@@H](O)[C@H](O)[C@H](O)CO [Gluconic acid] | well tolerated on healthy and eczema affected skin | 

Reference: patent US12616669B2, “Methods and chemical compositions for treating skin conditions by providing long lasting skin pH control for improving skin barrier function” (Soteri Skin, Inc., priority 2021, dated 2026)
